Measurements published in PMC7822892, “Avian antimicrobial peptides: in vitro and in ovo characterization and protection from early chick mortality caused by yolk sac infection” (Scientific Reports, 2021).
≈ marks a conversion by molar mass, not a printed value. Where a SMILES comes first, the peptide text is derived from it. Where no end group is shown, it is not given here.

Columns and labels:
[1] = test system: Clostridium perfringens JP26; conditions: Clostridium perfringens JP26, 10^4–10^5 CFU/ml in PBS pH 7.4, 2 h at 37 °C, duplicate, plating
[2] = test system: all tested bacteria (E. coli, S. Enteritidis, S. Typhimurium, C. jejuni, C. perfringens); conditions: 10^4–10^5 CFU/ml, 2 h
[3] = test system: HD11 cells; assay: HD11 cytotoxicity, WST-1 assay; conditions: 1.875 to 30 µg/ml, 24 h
[4] = test system: human PBMCs, monocyte chemotactic protein 1 (MCP-1); set-up: method as in PMID 19524300; conditions: in vitro stimulation of human PBMCs for 24 h; cited from earlier work
[5] = test system: E. coli EC317; conditions: EC317, 2 h, 240 µg/ml
[6] = test system: human peripheral blood mononuclear cells (PBMCs) and chicken erythrocytes; conditions: cited from earlier work

Molecule | Minimum inhibitory concentration (MIC) that kills 100% bacteria [1] | Effect on growth and metabolic activity of HD11 cells (in words) [3] | also measured
CC[C@H](C)[C@H](NC(=O)[C@H](CCCNC(=N)N)NC(=O)[C@H](CCCCN)NC(=O)[C@H](CS)NC(=O)[C@H](CS)NC(=O)[C@H](CC(C)C)NC(=O)[C@H](Cc1ccc(O)cc1)NC(=O)[C@H](Cc1ccccc1)NC(=O)[C@H](CCCNC(=N)N)NC(=O)[C@H](CO)NC(=O)[C@H](CS)NC(=O)[C@H](CCCCN)NC(=O)CNC(=O)[C@H](CO)NC(=O)[C@@H](NC(=O)[C@H](CC(C)C)NC(=O)[C@@H](NC(=O)[C@H](CC(C)C)NC(=O)[C@H](CO)NC(=O)[C@@H]1CCCN1C(=O)[C@H](CS)NC(=O)[C@H](CCCCN)NC(=O)[C@H](CC(C)C)NC(=O)[C@H](Cc1ccccc1)NC(=O)[C@H](C)NC(=O)[C@H](CS)NC(=O)[C@H](Cc1ccccc1)NC(=O)CNC(=O)[C@H](CO)NC(=O)[C@H](CCCCN)NC(=O)[C@H](CCCNC(=N)N)NC(=O)[C@H](Cc1ccccc1)NC(=O)[C@H](CS)NC(=O)[C@H](CC(=O)O)NC(=O)[C@H](CO)NC(=O)[C@H](CCCCN)NC(=O)[C@H](CCCNC(=N)N)NC(=O)CN)[C@@H](C)O)[C@@H](C)CC)C(=O)N[C@@H](Cc1c[nH]c2ccccc12)C(=O)O [ABD1] (H-GRKSDCFRKSGFCAFLKCPSLTLISGKCSRFYLCCKRIW-OH) | 0.83 µM (≈ 3.74 µg/mL) | not shown any significant effect | MIC over all tested bacteria ([2]; five strains): 0.83 to 1.66 µM
SPIHACRYQRGVCIPGPCRWPYYRVGSCGSGLKSCCVRNRWA (cysteines drawn unpaired) [ABD6] | 50.59 µM | not shown any significant effect | –
CATH-2: mature, full-length chicken cathelicidin-2 (literature values) | – | – | MCP-1 production (in words) [4]: significant induction
CC[C@H](C)[C@H](NC(=O)[C@H](CC(C)C)NC(=O)[C@H](Cc1c[nH]cn1)NC(=O)[C@H](CO)NC(=O)[C@@H]1CCCN1C(=O)[C@H](CS)NC(=O)CNC(=O)CNC(=O)[C@H](Cc1ccccc1)NC(=O)[C@H](Cc1c[nH]cn1)NC(=O)[C@H](CS)NC(=O)[C@H](CO)NC(=O)CNC(=O)CNC(=O)[C@H](CCCCN)NC(=O)[C@H](CS)NC(=O)[C@H](Cc1ccccc1)NC(=O)[C@H](CC(C)C)NC(=O)[C@H](CCSC)NC(=O)[C@H](CC(=O)O)NC(=O)[C@@H](N)CCCNC(=N)N)C(=O)N[C@@H](CCCCN)C(=O)N[C@H](C(=O)NCC(=O)N[C@@H](CO)C(=O)N[C@@H](CS)C(=O)N[C@@H](Cc1ccccc1)C(=O)NCC(=O)N[C@@H](Cc1ccccc1)C(=O)N[C@@H](CCCNC(=N)N)C(=O)N[C@@H](CO)C(=O)N[C@@H](CS)C(=O)N[C@@H](CS)C(=O)N[C@@H](CCCCN)C(=O)N[C@@H](Cc1c[nH]c2ccccc12)C(=O)N1CCC[C@H]1C(=O)N[C@@H](Cc1c[nH]c2ccccc12)C(=O)N[C@@H](CC(N)=O)C(=O)N[C@@H](C)C(=O)O)C(C)C [ABD2] (H-RDMLFCKGGSCHFGGCPSHLIKVGSCFGFRSCCKWPWNA-OH) | > 55.50 µM | not shown any significant effect | –
CATH-2(1–21): analog of CATH-2 (literature values) | – | – | MCP-1 production (in words) [4]: significant induction
DTLACRQSHGSCSFVACRAPSVDIGTCRGGKLKCCKWAPSS (cysteines drawn unpaired) [ABD9] | > 55.97 µM | not shown any significant effect | Growth inhibition [5]: 40–90%
RFGRFLRKIRRFRPK [CATH-2(1–15)] | > 118.05 µM | – | MIC over tested Gram-negative bacteria ([2]; E. coli, S. Enteritidis, S. Typhimurium, C. jejuni): 0.92 to 7.38 µM; Toxicity (in words) [6]: non-toxic or very mildly toxic
